Measured values as given in the NIST ThermoML archive (doi:10.1016/j.fluid.2016.02.030).

Assay: osmotic coefficient (dimensionless); mn = molality of the nth substance listed, in mol/kg
Conditions: 308.15 K, Liquid, omometer

O=C[C@H](O)[C@H](O)[C@H](O)CO [D-ribose] + O
Conditions	osmotic coefficient
m1 = 0.0338	0.9992
m1 = 0.0672	0.988
m1 = 0.1353	0.9826
m1 = 0.2041	0.9786
m1 = 0.2789	0.9769
m1 = 0.3505	0.9753
m1 = 0.4242	0.9745
m1 = 0.499	0.9743
m1 = 0.5801	0.9736
m1 = 0.6538	0.9734
m1 = 0.7165	0.973
m1 = 0.7426	0.9732
m1 = 0.8289	0.973
m1 = 0.9054	0.9732
m1 = 1.038	0.9735
m1 = 1.183	0.9735
m1 = 1.453	0.9745
m1 = 1.988	0.9774
m1 = 2.594	0.9857
m1 = 3.266	0.9944

O=C[C@H](O)[C@@H](O)[C@@H](O)CO [L-arabinose] + O
Conditions	osmotic coefficient
m1 = 0.0332	0.9993
m1 = 0.0672	0.9973
m1 = 0.1346	0.9965
m1 = 0.2071	0.995
m1 = 0.2766	0.9956
m1 = 0.3435	0.9951
m1 = 0.4151	0.9944
m1 = 0.4952	0.9947
m1 = 0.5785	0.9949
m1 = 0.6498	0.9944
m1 = 0.8204	0.9948
m1 = 0.9055	0.9945
m1 = 1.041	0.9945
m1 = 1.177	0.9944
m1 = 1.313	0.9942
m1 = 1.659	0.995
m1 = 2.402	1.002
m1 = 3.272	1.016

O=C[C@H](O)[C@@H](O)[C@@H](O)[C@H](O)CO [(+)-galactose] + O
Conditions	osmotic coefficient
m1 = 0.0558	0.9999
m1 = 0.1149	1.001
m1 = 0.1727	1.004
m1 = 0.2306	1.003
m1 = 0.2878	1.004
m1 = 0.3548	1.006
m1 = 0.4098	1.006
m1 = 0.4829	1.007
m1 = 0.5526	1.008
m1 = 0.6174	1.008
m1 = 0.6818	1.009
m1 = 0.7847	1.01
m1 = 0.8958	1.011
m1 = 1.009	1.012
m1 = 1.138	1.013
m1 = 1.308	1.016
m1 = 1.85	1.025
m1 = 2.61	1.045

O=C(CO)[C@@H](O)[C@H](O)[C@H](O)CO [D-fructose] + O
Conditions	osmotic coefficient
m1 = 0.0559	0.9986
m1 = 0.1125	0.9958
m1 = 0.1714	0.9944
m1 = 0.2296	0.9949
m1 = 0.2923	0.9947
m1 = 0.3466	0.9945
m1 = 0.4185	0.9946
m1 = 0.4792	0.9949
m1 = 0.5468	0.9947
m1 = 0.614	0.9951
m1 = 0.6925	0.9951
m1 = 0.7872	0.9955
m1 = 0.9018	0.995
m1 = 1.022	0.9947
m1 = 1.139	0.9949
m1 = 1.266	0.9949
m1 = 1.741	0.9972
m1 = 2.401	1.006
m1 = 2.95	1.014
m1 = 3.625	1.027
m1 = 5.424	1.069

O=C[C@H](O)[C@@H](O)[C@H](O[C@@H]1O[C@H](CO)[C@H](O)[C@H](O)[C@H]1O)[C@H](O)CO [4-O-β-D-galactopyranosyl-D-glucose] + O
Conditions	osmotic coefficient
m1 = 0.014	0.9946
m1 = 0.0578	1.011
m1 = 0.1025	1.022
m1 = 0.1286	1.03
m1 = 0.1795	1.046
m1 = 0.2313	1.058
m1 = 0.2909	1.065
m1 = 0.3217	1.067

OC[C@@H](O)[C@@H](O)[C@H](O)[C@@H](O)CO [D-sorbitol] + O
Conditions	osmotic coefficient
m1 = 0.0278	0.9979
m1 = 0.0558	1.001
m1 = 0.111	0.9992
m1 = 0.1676	1.003
m1 = 0.2296	1.002
m1 = 0.2892	1.004
m1 = 0.3523	1.003
m1 = 0.4124	1.004
m1 = 0.4781	1.003
m1 = 0.5436	1.003
m1 = 0.6109	1.003
m1 = 0.6764	1.003
m1 = 0.7778	1.003
m1 = 0.8812	1.004
m1 = 0.9996	1.004
m1 = 1.112	1.006
m1 = 1.284	1.008
m1 = 1.723	1.013
m1 = 2.342	1.027
m1 = 2.956	1.041
m1 = 3.645	1.057
